From US20250059610A1, “METHODS OF TREATING TUMOR” (priority 2017, published 2025)

Experiments:
[1] = tested on: NSCLC; conditions: cited from earlier work
[2] = tested on: metastatic or surgically unresectable urothelial carcinoma (UC); experiment: Single-arm phase II study of nivolumab (CheckMate 275), TMB analysis; assay type: in vivo, human
Procedure: Tumor DNA from pretreatment archival tumor tissue and matched whole blood samples was profiled by whole exome sequencing. TMB was defined as the total number of missense somatic mutations per tumor, and was evaluated as a continuous variable and by tertiles (missense count: high 167, medium 85-166, low <85). Cox models were used to explore the association between TMB and progression-free survival (PFS) and overall survival (OS); and logistic regression for objective response rate (ORR). Tumor PD-ligand 1 (PD-L1) expression was assessed by Dako PD-L1 immunohistochemistry 28-8 assay and was categorized as <1%.

[3] = 10 patients with ≥5% PD-L1 expression, monotherapy cohort

Substance: Nivolumab
- PFS rate at 24 weeks [1, 3]: 70%
- median PFS [1, 3]: 10.6 months
- objective response rate (ORR) [1, 3]: 50%
- ORR ([1]; patients with ≥1% PD-L1 expression): 28%
- OS, median ([2]; All Pts): 8.57 months
- PFS, median ([2]; All Pts): 2.00 month
- ORR ([2]; All Pts (N 270)): 20.0%
- ORR ([2]; All Pts, PD-L1 1%): 25.0%
- OS, median ([2]; All Pts, PD-L1 1%): 11.63 months
- PFS, median ([2]; All Pts, PD-L1 1%): 3.53 month
- ORR ([2]; All Pts, PD-L1 <1%): 15.8%
- OS, median ([2]; All Pts, PD-L1 <1%): 5.95 months
- PFS, median ([2]; All Pts, PD-L1 <1%): 1.87 month
- ORR ([2]; TMB High): 31.9%
- OS, median ([2]; TMB High): 11.63 months
- PFS, median ([2]; TMB High): 3.02 month
- ORR ([2]; TMB High, PD-L1 1%): 33.3%
- OS, median ([2]; TMB High, PD-L1 1%): 10.60 months
- PFS, median ([2]; TMB High, PD-L1 1%): 3.52 month
- ORR ([2]; TMB High, PD-L1 <1%): 30.4%
- PFS, median ([2]; TMB High, PD-L1 <1%): 3.02 month
- ORR ([2]; TMB Low): 10.9%
- OS, median ([2]; TMB Low): 5.72 months
- PFS, median ([2]; TMB Low): 1.91 month
- ORR ([2]; TMB Low, PD-L1 1%): 23.8%
- OS, median ([2]; TMB Low, PD-L1 1%): 8.57 months
- PFS, median ([2]; TMB Low, PD-L1 1%): 3.12 month
- ORR ([2]; TMB Low, PD-L1 <1%): 0%
- OS, median ([2]; TMB Low, PD-L1 <1%): 4.96 months
- PFS, median ([2]; TMB Low, PD-L1 <1%): 1.77 month
- ORR ([2]; TMB Medium): 17.4%
- OS, median ([2]; TMB Medium): 9.66 months
- PFS, median ([2]; TMB Medium): 1.87 month
- ORR ([2]; TMB Medium, PD-L1 1%): 12.0%
- OS, median ([2]; TMB Medium, PD-L1 1%): 11.30 months
- PFS, median ([2]; TMB Medium, PD-L1 1%): 1.94 month
- ORR ([2]; TMB Medium, PD-L1 <1%): 23.8%
- OS, median ([2]; TMB Medium, PD-L1 <1%): 4.53 months
- PFS, median ([2]; TMB Medium, PD-L1 <1%): 1.77 month
- OS, median ([2]; TMB Subgroup): 7.23 months
- PFS, median ([2]; TMB Subgroup): 2.00 month
- ORR ([2]; TMB Subgroup (N 139)): 20.1%
- ORR ([2]; TMB Subgroup, PD-L1 1%): 22.9%
- OS, median ([2]; TMB Subgroup, PD-L1 1%): 10.28 months
- PFS, median ([2]; TMB Subgroup, PD-L1 1%): 2.30 month
- ORR ([2]; TMB Subgroup, PD-L1 <1%): 17.4%
- OS, median ([2]; TMB Subgroup, PD-L1 <1%): 5.68 months
- PFS, median ([2]; TMB Subgroup, PD-L1 <1%): 1.87 month
